The subject of the experiment is B6C3F1 mice, B16 melanoma ip, median survival T/C. The experiment is described as follows: NCI In Vivo Anticancer Drug Screen. Data for tumor model B16 Melanoma (intraperitoneal) in B6C3F1 mice. The conditions noted are these: endpoint: median survival time, higher = longer survival. The gist of the method: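 Mice bearing transplanted tumor were dosed with compound or vehicle, and survival was recorded. Activity is expressed as the treated-group measurement (T) divided by the vehicle control measurement (C).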

[1] abbreviates: dose: 25.0 mg/kg/injection, schedule: Q01DX009 (ip), vehicle: Klucel (hydroxypropylcellulose) (HPC).
The mark [2] stands for this setting: dose: 50.0 mg/kg/injection, schedule: Q01DX009 (ip), vehicle: Klucel (hydroxypropylcellulose) (HPC).
The mark [3] stands for this setting: dose: 6.25 mg/kg/injection, schedule: Q01DX009 (ip), vehicle: Klucel (hydroxypropylcellulose) (HPC).
Setting [4] is: dose: 12.5 mg/kg/injection, schedule: Q01DX009 (ip), vehicle: Klucel (hydroxypropylcellulose) (HPC).

The values below come from PubChem BioAssay AID200 (DTP/NCI, 2004).

Values joined by “and” are separate entries in the source; they are usually repeats but may differ in a detail not shown here. Equal values may be shown once. Toxic doses and inconclusive results are not listed.

Turning to `COc1ccc2c(c1)CCn1c(C)c(COC(=O)NC(C)C)c(COC(=O)NC(C)C)c1-2`, the T/C is, setting by setting: (dose: 1.5 mg/kg/injection, schedule: Q01DX009 (ip), vehicle: distilled water + Tween-80) 114 % of control; (dose: 3.0 mg/kg/injection, schedule: Q01DX009 (ip), vehicle: distilled water + Tween-80) 154 % of control; (dose: 3.12 mg/kg/injection, schedule: Q01DX009 (ip), vehicle: distilled water + Tween-80) 150 % of control; (dose: 12.0 mg/kg/injection, schedule: Q01DX009 (ip), vehicle: distilled water + Tween-80) 163 % of control; (dose: 12.5 mg/kg/injection, schedule: Q01DX009 (ip), vehicle: distilled water + Tween-80) 180 % of control.

On to `O=C(NC(Cc1cccc(F)c1)C(=O)O)c1ccccc1` (stereo not drawn), for which the T/C (dose: 6.25 mg/kg/injection, schedule: Q01DX009 (ip), vehicle: other) is 104 % of control; the T/C (dose: 12.5 mg/kg/injection, schedule: Q01DX009 (ip), vehicle: other) was 110 % of control; the T/C (dose: 25.0 mg/kg/injection, schedule: Q01DX009 (ip), vehicle: other) is 99 % of control; the T/C (dose: 50.0 mg/kg/injection, schedule: Q01DX009 (ip), vehicle: other) is 88 % of control.

For the compound `CC(C)(C)OC(=O)NCCCCC(NC(=O)OCC1c2ccccc2-c2ccccc21)C(=O)O` (stereo not drawn), the T/C under setting [1] was 100 % of control and the T/C under setting [2] was 95 % of control.

For the compound `C=C1C(O)C2(O)OCC34C(CC5C(C)=CC(=O)C(O)C5(C)C23)OC(=O)C(OC(=O)C/C=C/CCCCCCCC)C14` (stereo not drawn), the T/C runs as follows: (dose: 4.0 mg/kg/injection, schedule: Q01DX009 (ip), vehicle: saline + alcohol) 182 % of control; (dose: 5.76 mg/kg/injection, schedule: Q01DX009 (ip), vehicle: saline + Tween-80 + alcohol) 160 % of control; (dose: 8.0 mg/kg/injection, schedule: Q01DX009 (ip), vehicle: saline + alcohol) 182 % of control; (dose: 9.6 mg/kg/injection, schedule: Q01DX009 (ip), vehicle: saline + Tween-80 + alcohol) 197 % of control; (dose: 16.0 mg/kg/injection, schedule: Q01DX009 (ip), vehicle: saline + Tween-80 + alcohol) 176 % of control; (dose: 16.0 mg/kg/injection, schedule: Q01DX009 (ip), vehicle: saline + alcohol) 192 % of control.

For `COc1cc2cc(c1Cl)N(C)C(=O)C[C@H](OC(=O)[C@H](C)N(C)C(C)=O)[C@]1(C)O[C@H]1[C@H](C)[C@@H]1C[C@@](O)(NC(=O)O1)[C@H](OC)C=C/C=C(\C)C2`, the T/C was 121 % of control (dose: 1.0 micrograms/kg/injection, schedule: Q01DX009 (ip), vehicle: saline + alcohol); 107 % of control (dose: 2.0 micrograms/kg/injection, schedule: Q01DX005 (iv), vehicle: saline + alcohol); 106 % of control (dose: 4.0 micrograms/kg/injection, schedule: Q01DX005 (iv), vehicle: saline + alcohol); 100 % of control and 106 % of control (dose: 8.0 micrograms/kg/injection, schedule: Q01DX005 (iv), vehicle: saline + alcohol); 112 % of control and 113 % of control (dose: 64.0 micrograms/kg/injection, schedule: Q01DX005 (iv), vehicle: saline + alcohol); 120 % of control (dose: 128.0 micrograms/kg/injection, schedule: Q01DX005 (iv), vehicle: saline + alcohol). Further, under “dose: 256.0 micrograms/kg/injection, schedule: Q01DX005 (iv), vehicle: saline + alcohol”, the T/C is 152 % of control.

`CCCCCC[Se][Se]CCCCCC`: the T/C was 97 % of control (dose: 1.56 mg/kg/injection, schedule: Q01DX009 (ip), vehicle: Klucel (hydroxypropylcellulose) (HPC)); 106 % of control (dose: 3.12 mg/kg/injection, schedule: Q01DX009 (ip), vehicle: Klucel (hydroxypropylcellulose) (HPC)); 95 % of control under setting [3].

In the case of `F[B-](F)(F)F`, the T/C reads like this: (dose: 12.5 mg/kg/injection, schedule: Q01DX009 (ip), vehicle: gum acacia) 99 % of control; (dose: 25.0 mg/kg/injection, schedule: Q01DX009 (ip), vehicle: gum acacia) 118 % of control; (dose: 50.0 mg/kg/injection, schedule: Q01DX009 (ip), vehicle: gum acacia) 100 % of control and 106 % of control; (dose: 100.0 mg/kg/injection, schedule: Q01DX009 (ip), vehicle: gum acacia) 98 % of control and 106 % of control; (dose: 200.0 mg/kg/injection, schedule: Q01DX009 (ip), vehicle: gum acacia) 108 % of control and 112 % of control; (dose: 400.0 mg/kg/injection, schedule: Q01DX009 (ip), vehicle: gum acacia) 93 % of control and 99 % of control.

As to `C/C=C(\C)c1cc(=O)c2c(C)cc3c(c2o1)C(=O)c1c(O)c(C2CC(C)(N(C)C)C(O)C(C)O2)cc(C2CC(N(C)C)C(O)C(C)O2)c1C3=O` (stereo not drawn), the T/C (dose: 31.25 micrograms/kg/injection, schedule: Q01DX009 (ip), vehicle: saline) is 111 % of control; the T/C (dose: 62.5 micrograms/kg/injection, schedule: Q01DX009 (ip), vehicle: saline) is 114 % of control; the T/C (dose: 156.25 micrograms/kg/injection, schedule: Q01DX009 (ip), vehicle: saline) is 176 % of control; the T/C (dose: 1250.0 micrograms/kg/injection, schedule: Q01DX009 (ip), vehicle: saline) is 93 % of control.

Regarding `O=c1ccn(C2OC(CO)C(O)C2O)c(=O)[nH]1` (stereo not drawn), the T/C was 97 % of control under setting [4]; 99 % of control under setting [1]; 104 % of control under setting [2]; 95 % of control (dose: 100.0 mg/kg/injection, schedule: Q01DX009 (ip), vehicle: Klucel (hydroxypropylcellulose) (HPC)); 99 % of control (dose: 200.0 mg/kg/injection, schedule: Q01DX009 (ip), vehicle: Klucel (hydroxypropylcellulose) (HPC)); 102 % of control (dose: 400.0 mg/kg/injection, schedule: Q01DX009 (ip), vehicle: Klucel (hydroxypropylcellulose) (HPC)). Moreover, the T/C (dose: 800.0 mg/kg/injection, schedule: Q01DX009 (ip), vehicle: Klucel (hydroxypropylcellulose) (HPC)) was 102 % of control.

Take `CC(=O)C(=O)O.CC(=O)C(=O)O.[NH-]C1CCCCC1[NH-].[Pt+2]` (stereo not drawn): for the setting “dose: 3.12 mg/kg/injection, schedule: Q01DX009 (ip), vehicle: other”, the T/C is 122 % of control.

As to `CC1=CC(=Nc2ccc(N(CCCl)CCCl)cc2)C=C(C)C1=O`, the T/C is, setting by setting: under setting [3], 150 % of control; under setting [4], 163 % of control and 176 % of control; under setting [1], 186 % of control.

Regarding `CCCCC/C(=C\c1ccccc1)C1OCC(COCC)O1` (stereo not drawn), the T/C is, setting by setting: (dose: 6.25 mg/kg/injection, schedule: Q01DX009 (ip), vehicle: saline + Tween-80 + alcohol) 87 % of control; (dose: 12.5 mg/kg/injection, schedule: Q01DX009 (ip), vehicle: saline + Tween-80 + alcohol) 91 % of control; (dose: 25.0 mg/kg/injection, schedule: Q01DX009 (ip), vehicle: saline + Tween-80 + alcohol) 94 % of control; (dose: 50.0 mg/kg/injection, schedule: Q01DX009 (ip), vehicle: saline + Tween-80 + alcohol) 93 % of control.

In the case of `CCC(C)C(O)C(C)C(=O)C(C)/C=C(\C)CC(C)C1OC(=O)C1C` (stereo not drawn), the T/C reads like this: (dose: 0.25 mg/kg/injection, schedule: Q01DX009 (ip), vehicle: saline + alcohol) 96 % of control; (dose: 0.5 mg/kg/injection, schedule: Q01DX009 (ip), vehicle: saline + alcohol) 98 % of control and 104 % of control; (dose: 1.0 mg/kg/injection, schedule: Q01DX009 (ip), vehicle: saline + alcohol) 99 % of control and 101 % of control; (dose: 2.0 mg/kg/injection, schedule: Q01DX009 (ip), vehicle: saline + alcohol) 96 % of control and 98 % of control.

As for `COc1cc([C@@H]2c3cc4c(cc3[C@H](O)[C@H]3COC(=O)[C@H]23)OCO4)cc(OC)c1OC`, the T/C reads like this: (dose: 0.36 mg/kg/injection, schedule: Q01DX009 (ip), vehicle: Klucel (hydroxypropylcellulose) (HPC)) 116 % of control; (dose: 0.6 mg/kg/injection, schedule: Q01DX009 (ip), vehicle: Klucel (hydroxypropylcellulose) (HPC)) 102 % of control; (dose: 1.0 mg/kg/injection, schedule: Q01DX009 (ip), vehicle: Klucel (hydroxypropylcellulose) (HPC)) 107 % of control; (dose: 1.67 mg/kg/injection, schedule: Q01DX009 (ip), vehicle: Klucel (hydroxypropylcellulose) (HPC)) 103 % of control; (dose: 2.0 mg/kg/injection, schedule: Q01DX009 (ip), vehicle: Klucel (hydroxypropylcellulose) (HPC)) 123 % of control; (dose: 2.78 mg/kg/injection, schedule: Q01DX009 (ip), vehicle: Klucel (hydroxypropylcellulose) (HPC)) 114 % of control. For the same compound, the T/C (dose: 4.0 mg/kg/injection, schedule: Q01DX009 (ip), vehicle: Klucel (hydroxypropylcellulose) (HPC)) was 114 % of control.
